In patent publication US7723332B2, “Aryl sulfonamides useful for modulation of the progesterone receptor” (Wyeth LLC, priority 2007, dated 2010):

Tested on: alkaline phosphatase activity in T47D cells
Assay: Effects of progestins and antiprogestins on alkaline phosphatase activity in T47D cells
Type: cell-based
Conditions: T47D alkaline phosphatase assay, antagonist mode in the presence of 1 nM progesterone, 24 hours; for IC50: Homo sapiens
Protocol: Effects of Progestins and Antiprogestins on Alkaline Phosphatase Activity in T47D Cells
This example was performed to identify progestins or antiprogestins by determining a compound's effect on alkaline phosphatase activity in T47D cells.
Culture medium: DMEM:F12 (1:1) (GIBCO, BRL) supplemented with 5% (v/v) charcoal stripped fetal bovine serum (not heat-inactivated), 100 U/mL penicillin, 100 μg/mL streptomycin, and 2 mM the GlutaMax™ reagent (GIBCO, BRL).
Alkaline phosphatase assay buffer: • I. 0.1M Tris-HCl, pH 9.8, containing 0.2% the Triton® X-100 reagent • II. 0.1 M Tris-HCl, pH 9.8, containing 4 mM p-nitrophenyl phosphate (Sigma).
Frozen T47D cells were thawed in a 37° C. water bath and diluted to 280,000 cells/mL in culture medium. To each well in a 96-well plate (Falcon, Becton Dickinson Labware), 180 μL of diluted cell suspension was added. Twenty μL of reference or test compounds diluted in the culture medium was then added to each well. When testing for progestin antagonist activity, reference antiprogestins or test compounds were added in the presence of 1 nM progesterone. The cells were incubated at 37° C. in a 5% CO2/humidified atmosphere for 24 hours. NOTE: For high throughput screening, one concentration of each compound was tested at 0.3 μg/mL. Based on an average molecular weight of 300 g/mol for the compounds in the library, the concentration was approximately 1 μM. Subsequently, active compounds were tested in dose response assays to determine EC50 and IC50.
At the end of treatment, the medium was removed from the plate. Fifty μL of assay buffer I was added to each well. The plates were shaken in a titer plate shaker for 15 minutes. 150 μL of assay buffer II was then added to each well. Optical density measurements were taken at 5 minute intervals for 30 minutes at a test wavelength of 405 nm.
For reference and test compounds, a dose response curve was generated for dose (X-axis) vs. the rate of enzyme reaction (slope) (Y-axis). Square root-transformed data was used for analysis of variance and nonlinear dose response curve fitting for both agonist and antagonist modes. Huber weighting was used to down-weight the effects of outliners. EC50 or IC50 values were calculated from the retransformed values. JMP software (SAS Institute, Inc.) was used for both one-way analysis of variance and non-4 linear dose response analysis in both single dose and dose response studies.
Progesterone and trimegestone are reference progestins known in the art and typically show an EC50 of about 0.1 nM to about 2.0 nM.

Row | Structure (SMILES) | IC50 [nM] | Active Dose [µM]
1 | Cn1c(C#N)ccc1-c1ccc(S(N)(=O)=O)cc1 [Example 63, 4-(5-cyano-1-methyl-1H-pyrrol-2-yl)benzenesulfonamide] | 99.5 | 
2 | Cn1c(C#N)ccc1-c1ccc(S(=O)(=O)NC2CC2)c(OC(F)(F)F)c1 [Example 54, 4-(5-cyano-1-methyl-1H-pyrrol-2-yl)-N-cyclopropyl-2-(trifluoromethoxy)benzenesulfonamide] | 71.7 | 
3 | Cn1c(C#N)ccc1-c1ccc(S(=O)(=O)NC(C)(C)C)cc1 [Example 9, N-(tert-butyl)-4-(5-cyano-1-methyl-1H-pyrrol-2-yl)benzenesulfonamide] |  | 10
4 | CCN(CC)S(=O)(=O)c1ccc(-c2ccc(C#N)n2C)cc1F [Example 41, 4-(5-cyano-1-methyl-1H-pyrrol-2-yl)-N,N-diethyl-2-fluorobenzenesulfonamide] | 62.2 | 
5 | Cn1c(C#N)ccc1-c1ccc(S(=O)(=O)NCC2CC2)cc1 [Example 17, 4-(5-cyano-1-methyl-1H-pyrrol-2-yl)-N-(cyclopropylmethyl)benzenesulfonamide] | 27.6 | 
6 | CN(C)S(=O)(=O)c1ccc(-c2ccc(C#N)n2C)c(F)c1 [Example 32, 4-(5-cyano-1-methyl-1H-pyrrol-2-yl)-3-fluoro-N,N-dimethylbenzenesulfonamide] | 128 | 
7 | Cn1c(C#N)ccc1-c1ccc(S(=O)(=O)NC2CCC2)c(F)c1 [Example 45, 4-(5-cyano-1-methyl-1H-pyrrol-2-yl)-N-cyclobutyl-2-fluorobenzenesulfonamide] | 99.4 | 
8 | Cn1c(C#N)ccc1-c1ccc(S(=O)(=O)N2CCOCC2)cc1 [Example 12, 1-methyl-5-[4-(morpholin-4-ylsulfonyl)phenyl]-1H-pyrrole-2-carbonitrile] | 189 | 
